The target of the test is Botulinum neurotoxin type A (Clostridium botulinum, UniProt P0DPI0). Description: Inhibition of Clostridium botulinum BoNT/A light chain (1 to 429 amino acid) using Abz-Thr-dArg-Ile-Asp-Glu-Ala-Asn-Gln-Arg-Ala-Thr-Lys-Nle-Lys(Dnp)-NH2 as substrate after 10 mins by FRET assay.

The record followed here is BindingDB's records for doi:10.1016/j.bmcl.2013.03.030 (Panthera Biopharma, 2013).

Where only a bound is given, the exact number is not on record here.

Sequence of Botulinum neurotoxin type A (P0DPI0 2-448 limits assumed): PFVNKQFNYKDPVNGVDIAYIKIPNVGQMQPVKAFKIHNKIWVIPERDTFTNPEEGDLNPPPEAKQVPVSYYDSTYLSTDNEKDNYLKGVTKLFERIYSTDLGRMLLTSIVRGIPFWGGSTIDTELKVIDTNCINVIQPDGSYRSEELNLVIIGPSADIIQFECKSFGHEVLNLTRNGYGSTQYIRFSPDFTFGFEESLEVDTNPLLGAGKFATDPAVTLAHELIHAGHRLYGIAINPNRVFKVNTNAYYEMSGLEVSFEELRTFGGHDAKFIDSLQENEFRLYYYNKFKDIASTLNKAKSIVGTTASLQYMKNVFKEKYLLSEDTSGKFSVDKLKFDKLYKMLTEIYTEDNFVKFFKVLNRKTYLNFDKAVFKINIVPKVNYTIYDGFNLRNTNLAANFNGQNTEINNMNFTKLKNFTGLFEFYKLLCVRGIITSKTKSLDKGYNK

For `O=C(Cc1sc(N2CCCC2)nc1O)NO`, the inhibition constant Ki (in general, a dissociation constant, usually derived from enzyme kinetics or from competition with a known ligand) is more than 300 µM.
